Data from the supplement of paper PMC10307832.

Columns and labels:
Assay in all cases: relative viability (nuclei count vs DMSO), 5 days (fraction); higher = more cells survive
Salubrinal + Crizotinib = compound: O=C(/C=C/c1ccccc1)NC(NC(=S)Nc1cccc2cccnc12)C(Cl)(Cl)Cl [Salubrinal] + C[C@@H](Oc1cc(-c2cnn(C3CCNCC3)c2)cnc1N)c1c(Cl)ccc(F)c1Cl [Crizotinib] (partner 1 µM)
In short: (§1)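 Relative viability was taken as the ratio of nuclei in treated wells to nuclei in vehicle wells. Lung cancer cell lines in 1536-well plates received compounds by pin tool one day after seeding, either one drug alone or a fixed anchor-drug dose plus five library-drug doses (not always all listed) in √10 steps. Nuclei were counted on 4× images after 5 days of treatment, and values are medians of duplicate plates.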

[1] = compound: Cc1ccc2nc(NCCN)c3ncc(C)n3c2c1 + Cc1nc(Nc2ncc(C(=O)Nc3c(C)cccc3Cl)s2)cc(N2CCN(CCO)CC2)n1 [Dasatinib] (partner 0.075 µM)
In short: as §1

Salubrinal + Foretinib = compound: O=C(/C=C/c1ccccc1)NC(NC(=S)Nc1cccc2cccnc12)C(Cl)(Cl)Cl [Salubrinal] + COc1cc2c(Oc3ccc(NC(=O)C4(C(=O)Nc5ccc(F)cc5)CC4)cc3F)ccnc2cc1OCCCN1CCOCC1 [Foretinib] (partner 0.25 µM)
In short: as §1

[2] = compound: Cc1ccc2nc(NCCN)c3ncc(C)n3c2c1 + Cc1nc(NC(=O)N2CCC[C@H]2C(N)=O)sc1-c1ccnc(C(C)(C)C(F)(F)F)c1 [Alpelisib] (partner 2 µM)
In short: as §1

Cell Line	relative viability (Salubrinal + Crizotinib; first compound 0.08 µM)	relative viability (Salubrinal + Crizotinib; first compound 0.253 µM)	relative viability (Salubrinal + Crizotinib; first compound 0.8 µM)	relative viability (Salubrinal + Crizotinib; first compound 2.53 µM)	relative viability (Salubrinal + Crizotinib; first compound 8 µM)	relative viability ([1]; first compound 0.04 µM)	relative viability ([1]; first compound 0.1265 µM)	relative viability ([1]; first compound 0.4 µM)	relative viability ([1]; first compound 1.265 µM)	relative viability ([1]; first compound 4 µM)	relative viability (Salubrinal + Foretinib; first compound 0.08 µM)	relative viability (Salubrinal + Foretinib; first compound 0.253 µM)	relative viability (Salubrinal + Foretinib; first compound 0.8 µM)	relative viability (Salubrinal + Foretinib; first compound 2.53 µM)	relative viability (Salubrinal + Foretinib; first compound 8 µM)	relative viability ([2]; first compound 0.04 µM)	relative viability ([2]; first compound 0.1265 µM)	relative viability ([2]; first compound 0.4 µM)	relative viability ([2]; first compound 1.265 µM)	relative viability ([2]; first compound 4 µM)
H3255	1.16	0.823	1.12	0.804	0.775	0.396	0.393	0.45	0.383	0.387	0.898	0.953	1.01	0.822	0.874	0.77	0.613	0.705	0.659	0.593
HARA	1.21	0.911	1.03	1.14	0.868	0.295	0.282	0.313	0.243	0.255	0.836	0.628	0.917	1.08	0.69	0.839	0.831	0.804	0.715	0.788
HCC-15	0.984	0.651	0.946	0.883	0.785	0.703	0.666	0.646	0.575	0.391	1.21	0.999	1.07	1.08	1.06	0.879	0.906	0.93	0.868	0.814
HCC-44	0.833	0.801	0.863	0.748	0.759	–	–	–	–	–	–	–	–	–	–	0.776	0.787	0.786	0.711	0.769
HCC-78	0.363	0.325	0.398	0.308	0.302	0.425	0.496	0.364	0.354	0.303	0.597	0.561	0.584	0.649	0.551	0.338	0.337	0.288	0.309	0.308
HCC-366	0.798	0.437	0.777	0.393	0.55	0.561	0.685	0.672	0.579	0.629	0.929	0.947	0.96	0.943	0.915	0.552	0.329	0.455	0.433	0.276
HCC-827	0.901	0.921	0.992	0.475	0.844	0.33	0.239	0.291	0.266	0.227	1.02	1.02	1.07	0.956	1.09	0.964	1.02	0.941	0.958	0.905
IA-LM	0.784	0.602	1.19	0.767	0.575	–	–	–	–	–	1.21	0.764	1.17	1.12	0.775	0.762	0.738	0.682	0.913	0.804
NCI-H522	–	–	–	–	–	0.882	0.966	0.827	0.806	0.842	–	–	–	–	–	–	–	–	–	–
NCI-H1299	0.993	0.802	0.943	0.99	0.925	–	–	–	–	–	1.12	1.07	1.14	1.05	1.05	1.03	1.1	1.05	1.08	0.993
NCI-H1395	–	–	–	–	–	0.48	0.425	0.374	0.37	0.407	0.993	1.1	0.938	0.92	1.08	1.05	1.3	1.08	1.19	0.888
NCI-H1623	–	–	–	–	–	0.525	0.664	0.523	0.482	0.494	0.735	0.787	0.891	0.824	0.888	–	–	–	–	–
NCI-H1650	1.06	0.859	1.02	0.882	0.942	0.33	0.312	0.273	0.282	0.226	1.26	1.02	1.08	1.14	0.894	–	–	–	–	–
NCI-H1703	0.535	–	1.06	0.701	0.576	–	–	–	–	–	0.319	0.459	0.349	0.354	0.337	0.472	0.36	0.275	0.388	0.348
NCI-H1792	1.14	–	1.33	0.929	0.859	0.741	0.624	0.816	0.704	0.382	–	–	–	–	–	0.696	0.678	0.615	0.527	0.661
NCI-H1793	–	–	–	–	–	0.386	0.417	0.389	0.332	0.384	0.879	0.645	0.754	0.595	0.508	0.707	0.677	0.637	0.654	0.693
NCI-H2342	–	–	–	–	–	0.363	0.363	0.328	0.284	0.313	1.1	1.04	1.1	1.09	0.927	–	–	–	–	–
SW 900	–	–	–	–	–	0.419	0.759	–	0.459	0.408	0.78	–	0.806	0.698	0.659	–	–	–	–	–
